The values that follow come from patent publication US10690666B2, “Methods and compositions for modulating TH-GM cell function” (National University of Singapore, priority 2014, dated 2020).

Common to all, as to type: cell-based, mouse
The subject of assay [1] is neutrophils. Kind of assay: In vitro neutrophil transmigration assay. Conditions: as chemoattractant; 3 h. On the procedure:
FIGS. 33A-33C depicts GM-CSF enhances neutrophil transmigration and delay apoptosis in vitro. (FIG. 33A) Percentages of migrated neutrophils with or without GM-CSF as chemoattractant in transmigration assay at 3 h post start. (FIG. 33B) Microscopic images of CFSE-labeled neutrophils in the bottom of the lower chamber in transmigration assay. (FIG. 33C) Sorted neutrophils were cultured in vitro with or without GM-CSF (20 ng/ml) for 24 h. Neutrophils undergoing apoptosis were examined by Annexin V and propidium iodide (PI) co-staining. A representative flow cytometry of three repeats was shown. *p<0.05.
Neutrophils are recruited during inflammation, in which complex interactions between neutrophils and vascular endothelial cells direct neutrophil adhesion and transmigration from circulation to inflamed tissues (Kolaczkowska and Kubes, 2013). […] Effective neutrophil apoptosis is crucial for the resolution of inflammation. However, in synovitis, neutrophil apoptosis is delayed with a result of extended survival and persistent inflammation (Wright et al., 2014). […] To determine the critical role of neutrophils in AIA, \ neutralizing antibody (1A8) specific for Ly6G was used to deplete neutrophils in vivo. […] Thus, neutrophils accumulation mediated by TH-cell-derived GM-CSF are important for AIA development.

The subject of assay [2] is BMDCs. Description: Cytokine expression by bone marrow-derived dendritic cells (BMDCs). The source says: (§1) FIGS. 34A-34I depicts GM-CSF mediates proinflammatory cytokine expression by myeloid cells and synovial fibroblasts in arthritic mice. Synovial tissues were dissected from wild-type AIA mice and dissociated into single cell suspensions. (FIG. 34A) Flow cytometry plots depicting the fractionation into different populations based on differential expression of surface markers. (FIG. 34B) The mRNA expression of several proinflammatory cytokines in sorted CD45^+ TCRβ^+ (TCRβ^+ in short), CD45^+ TCRβ^−CD11c^−CD11b^+ (CD11b^+) and CD45^+ TCRβ^−CD11c^+ (CD11c^+) populations was measured by qPCR. The qPCR data were normalized to GAPDH. (FIG. 34C) The mRNA expression of IL-6, IL-1β and TNF-α in sorted Ly6C^hiLy6G^− and Ly6C^loLy6G^hi populations (gated on CD11b^+ cells). The qPCR data were normalized to GAPDH. (FIGS. 34D and 34E) The mRNA expression of IL-6 and IL-1β by BMDMs (FIG. 34D) and BMDCs (FIG. 34E) upon stimulation with 20 ng/ml GM-CSF for 1 h. The qPCR data were normalized to GAPDH. (FIGS. 34F and 34G) BMDMs (FIG. 34F) and BMDCs (FIG. 34G) were stimulated with GM-CSF at indicated concentrations (n=3 per group) for 18 h. The secretion of IL-6 in the culture supernatant was quantified by ELISA. (FIG. 34H) BMDMs were primed with LPS (100 μg/ml) in the presence of GM-CSF at indicated concentrations (n=3 per group) for 6 h, followed by stimulation with ATP (5 mM) for 30 min. The secretion of IL-1β in the culture supernatant was quantified by ELISA. (FIG. 34I) Cells were cultured in DMEM medium supplemented with 10% FBS for over 20 days with more than 5 passages to obtain synovial fibroblasts. Synovial fibroblasts were stimulated with GM-CSF (20 ng/ml) for 1 h and harvested for RNA extraction. The mRNA expression of IL-1β was measured by qPCR. The qPCR data were normalized to GAPDH. All data shown represent two independent experiments. *p<0.05, **p<0.01.
To test the regulatory role of GM-CSF in the expression of IL-6 and IL-1β, bone marrow-derived macrophages (BMDMs) and bone marrow-derived dendritic cells (BMDCs) were cultured, and stimulated with GM-CSF. […]

Assay [3] has as its system BMDMs. Kind of assay: Cytokine expression by bone marrow-derived macrophages (BMDMs).
Excerpt: as §1
To test the regulatory role of GM-CSF in the expression of IL-6 and IL-1β, bone marrow-derived macrophages (BMDMs) and bone marrow-derived dendritic cells (BMDCs) were cultured, and stimulated with GM-CSF. […] To induce mature IL-1β secretion, BMDMs were primed with LPS for 6 h during which different concentrations of GM-CSF was added, followed by ATP stimulation. […] An inducible effect of GM-CSF on TNF-α expression was not observed in BMDMs, BMDCs or synovial fibroblasts (data not shown). Given the functional importance of IL-6 and IL-1β in arthritis development (Choy and Panayi, 2001), TH-cell-secreted GM-CSF may mediate synovial inflammation also via eliciting the expression of IL-6 and IL-1β from myeloid cells and synovial fibroblasts.

Assay [4] concerns synovial fibroblasts. Description: Cytokine mRNA expression by synovial fibroblasts.
Excerpt: as §1, with “(FIG. 34H) BMDMs were primed with LPS (100 μg/ml) in the presence of GM-CSF at indicated concentrations (n=3 per group) for 6 h, followed by stimulation with ATP (5 mM) for 30 min.” left out, “(FIG. 34I) Cells were cultured in DMEM medium supplemented with 10% FBS for over 20 days with more than 5 passages to obtain synovial fibroblasts. Synovial fibroblasts were stimulated with GM-CSF (20 ng/ml) for 1 h and harvested for RNA extraction.” left out, “The qPCR data were normalized to GAPDH. All data shown represent two independent experiments. *p<0.05, **p<0.01.” left out

On to “GM-CSF: granulocyte macrophage colony-stimulating factor (ImmunoTools) given intraarticularly or added to cell cultures”, for which, in assay [1], the “neutrophil adhesion and migration across monolayers of endothelial cells” value is “significantly enhanced”. In addition, the “mRNA expression of IL-6 and IL-1β in BMDCs” value in assay [2] (20 ng/ml, 1 h) is listed as “quickly upregulated”. For the same substance, the “secretion of IL-6 from BMDCs” value in assay [2] (18 h, ELISA) is on record as “markedly increased”. Moreover, the “TNF-α expression in BMDCs” value in assay [2] (data not shown) was “not observed”. The “mRNA expression of IL-6 and IL-1β in BMDMs” value in assay [3] (20 ng/ml, 1 h) was “quickly upregulated”. In assay [3] (18 h, ELISA), the “secretion of IL-6 from BMDMs” value was “markedly increased”. The “secretion of IL-1β from BMDMs” value in assay [3] (LPS priming 6 h, then ATP 30 min, ELISA) is “significantly enhanced”. In addition, the “TNF-α expression in BMDMs” value in assay [3] (data not shown) is listed as “not observed”. Moreover, the “IL-1β mRNA expression in synovial fibroblasts” value in assay [4] (20 ng/ml, 1 h) is on record as “increased IL-1β mRNA expression”. Also, in assay [4] (data not shown), the “TNF-α expression in synovial fibroblasts” value is “not observed”.
